Structures are written as SMILES.

Data set [1] in a line: In silico model: simulated larotrectinib plasma exposure after a single oral dose with and without itraconazole or rifampicin (model verification against observed data). Details: species or system human. The procedure:
The effect of different CYP3A4 inhibitors and inducers on the pharmacokinetics of larotrectinib was evaluated using an in silico model. The following drugs were included in the study: The model was correlated by comparison of simulated and observed plasma concentrations in both healthy subjects and cancer patients for midazolam, testosterone, and several of the tested drugs, including larotrectinib alone, larotrectinib + intraconazole, larotrectinib + rifampicin. The following virtual trials were conducted: 12 healthy subjects (50% female) aged 20 to 55 years receiving larotrectinib (100 mg BID) for 14 days in the absence of itraconazole and coadminstered with itraconazole (tablets in fed state; 200 mg QD). A comparison was made between mean simulated and observed plasma concentrations of larotrectinib following a single oral dose of 100 mg larotrectinib in the absence of and co-administered with itraconazole on the 5th day of 7 days of dosing (200 mg QD). Simulated Cmax and AUC and corresponding ratios for larotrectinib are shown below. […] A comparison was made between mean simulated and observed plasma concentrations of larotrectinib following a single oral dose of 100 mg larotrectinib in the absence of and co-administered with rifampicin on the 10th day of 11 days of dosing (600 mg QD). Simulated Cmax and AUC and corresponding ratios for larotrectinib are shown below.

A short description of data set [2]: Observed larotrectinib plasma exposure after a single oral dose with and without itraconazole or rifampicin. In kind it is in vivo, human. Conditions: for AUC / Cmax: human, plasma, po. As to the method:
A comparison was made between mean simulated and observed plasma concentrations of larotrectinib following a single oral dose of 100 mg larotrectinib in the absence of and co-administered with itraconazole on the 5th day of 7 days of dosing (200 mg QD). Simulated Cmax and AUC and corresponding ratios for larotrectinib are shown below. […] A comparison was made between mean simulated and observed plasma concentrations of larotrectinib following a single oral dose of 100 mg larotrectinib in the absence of and co-administered with rifampicin on the 10th day of 11 days of dosing (600 mg QD). Simulated Cmax and AUC and corresponding ratios for larotrectinib are shown below.

The nature of data set [3]: Observed larotrectinib exposure at 100 mg BID without CYP3A4 perpetrators. The conditions noted are these: in vivo, 100 mg BID larotrectinib in the absence of any CYP3A4 perpetrators. As to the method: 100 mg BID larotrectinib was administered in the absence of any CYP3A4 perpetrators.
The mark [4] stands for this setting: Observed, plus rifampicin 600 mg QD / control, single oral dose 100 mg larotrectinib, interval in brackets.
The mark [5] stands for this setting: coadministration of larotrectinib with rifampicin (600 mg QD).
The mark [6] stands for this setting: 100 mg, Observed, Control: single oral dose 100 mg larotrectinib in absence of itraconazole, healthy subjects.
Where [7] appears, read: 100 mg, Observed, Control: single oral dose 100 mg larotrectinib in absence of rifampicin.
The mark [8] stands for this setting: Observed, single oral dose 100 mg larotrectinib plus itraconazole 200 mg QD (5th day of 7 days), healthy subjects.
The mark [9] stands for this setting: Observed, single oral dose 100 mg larotrectinib plus rifampicin 600 mg QD (10th day of 11 days).

`O=C(Nc1cnn2ccc(N3CCC[C@@H]3c3cc(F)ccc3F)nc12)N1CC[C@H](O)C1` [larotrectinib]: the “P/O Ratio AUC” value in data set [1] (predicted/observed of the AUC ratio plus itraconazole / control) is 1.04; in data set [1] (predicted/observed of the AUC ratio plus rifampicin / control), 0.79. The “P/O Ratio Cmax” value in data set [1] (predicted/observed of the Cmax ratio plus itraconazole / control) is listed as 0.79; in data set [1] (predicted/observed of the Cmax ratio plus rifampicin / control), 0.76. The “Ratio AUC” value in data set [2] (setting [4]) is given as 0.19 (0.16, 0.24). In addition, in data set [2] (setting [4]), the “Ratio Cmax” value is 0.29 (0.23, 0.37). Further, in data set [2] (setting [5]), the “observed reduction in exposure of larotrectinib, AUC” value was 81%. In addition, the “observed reduction in exposure of larotrectinib, Cmax” value in data set [2] (setting [5]) was determined as 71%. The AUC in data set [2] (setting [6]) was found to be 1280 ng·h/mL; in data set [2] (setting [7]), 1340 ng·h/mL; in data set [2] (setting [8]) it was 5520 ng·h/mL; in data set [2] (setting [9]), 259 ng·h/mL; in data set [3], 1590 ng·h/mL. Further, the Cmax in data set [2] (setting [6]) was 497 ng/mL; in data set [2] (setting [7]), 435 ng/mL; in data set [2] (setting [8]) it was 1400 ng/mL; in data set [2] (setting [9]) it was 133 ng/mL; in data set [3], 624 ng/mL.

For orientation: AUC means concentration integrated over time. Usually Cmax stands for the highest concentration seen after dosing.

(Values after EP4371563A1, “COMBINATIONS OF LAROTRECTINIB AND MODERATE CYP3A4 INDUCERS” (Bayer Consumer Care AG, priority 2022, dated 2024).)
